Results taken from patent publication US20250092058A1 (priority 2018, published 2025).

Legend:
[1] = tested on: ERCC6, γ-H2AX; experiment: Western blots of DNA damage/repair proteins in PANC1; type: cell-based, human
Method: Western blotting/Immunoblotting. […] Fifty μg total protein from each sample were heated at 95° C. for 5 minutes after mixing with equal volume of 2×SDS loading buffer. Samples were separated on 12-15% SDS-polyacrylamide gel electrophoresis (SDS-PAGE) gels and electrotransferred to Pure Nitrocellulose Membranes (Bio-Rad, Hercules, CA). The membrane was then blocked in 5% skim milk in TBS-T buffer (20 mM Tris/HCl pH 7.5, 0.137 M NaCl, and 0.1% Tween 20) at room temperature for 2-3 hours. Next, the membrane was incubated with different primary antibodies in TBS-T containing 5% BSA overnight at 4° C. in the range of dilutions from 1:500 to 1:2000. After washing with TBS-T, the membrane was incubated in TBS-T buffer containing 5% skim milk and corresponding secondary antibody (1:5000) for 45-60 minutes at room temperature with shaking. Protein of interest was detected using Western Lightning Plus—ECL (Perkin Elmer, Waltham, MA) and visualized by various times (3-120 seconds) of exposure. Actin was detected as the internal control to normalize total protein loading for each sample.

[2] = tested on: ABCG2 and Pgp; experiment: Efflux transporter substrate studies; type: in vitro ADME
[3] = tested on: HeLa; type: cell-based, human; conditions: Table 13; MTT; HeLa cervical cancer
[4] = tested on: PDX17624; experiment: Pancreatic cancer PDX17624 in SCID mice; type: in vivo; conditions: 5 mg/kg ip qw×4
Method: (§1) Human pancreatic cancer patient-derived xenograft (PDX) tumor mouse model and treatment. Experiments followed the IACUC-approved mouse protocol. Briefly, human PDAC PDX tumors maintained on SCID mice were isolated, and a piece of non-necrotic tumor tissues (30-40 mg) were subcutaneously transplanted into the flank area of female SCID mice. […] In this study, we used the timesaving intraperitoneal (ip) route for drug administration. […] The formulation process was described in detail in our previous patent (PCT/US2011/058558). […] Tumor length (L) and width (W) were measured using digital vernier calipers 1-3 times per week until the end of experimental studies. The tumor volume (v) was calculated using the formula: v=0.5 (L×W^2). Then the tumor size was divided by the day 0 tumor size as percentage tumor size versus day 0. The mean tumor volume ± standard deviation (SD) at each time point was derived from 5 mice in each group. The tumor curves were made using Sigma Plot software.
(§2) It has been recently documented that pancreatic cancer PDXs retain active paracrine/Hedgehog signaling, and desmoplasia is active in PDX tumor mouse models.

[5] = tested on: PANC1 cells; experiment: Matrigel CSC sphere formation; type: cell-based, human; conditions: 1, 10 and 100 nM, 20 days
Method: Matrigel stem cell cultural assay. […] Spheres were maintained in Improved MEM containing 20 ng/ml epidermal growth factor, 10 ng/ml basic fibroblast growth factor, […] insulin and 0.4% Bovine Serum Albumin. PANC1cells were plated at a density of 1000 cells/well in 24-well ultralow attachment plates (Sigma-Aldrich). Briefly, 1000 PANC1 cells were suspended in […] medium and mixed thoroughly with […] BD Matrigel™ (BD Bioscience, San Jose, CA, USA). […] Upon solidification, FL118 treatment was administered. Spheres in each well were set in the plate to grow for 20 days and then quantitated visually under a microscope at the magnification of 10×.
To further confirm these findings, we alternatively used the typical matrigel-based CSC sphere formation assay which is know to more closely mimic in vivo situations. In this assay only drug resistant stem-like cancer cells are able to form spheres. […] We performed colony formation of CD44 stem cell marker-positive cells using the stem-cell culture condition. […] Thus, the GFPcODC-positive cell model may be an extremely drug resistant cell model or a less actual cell mimic system after transfection of the GFPcODC-expressing vector and selection process for obtaining GFPcODC-expressing cells, which may not fully mimic the CD44 stem cell marker-positive drug resistant cells. […]

[6] = Oral PK in SW620/HT29 tumor-bearing SCID mice; conditions: 1.5 mg/kg oral, HPβCD aqueous suspension
Method: Tumor tissues and blood samples were collected at a series of time points of 30 minutes, 1 hour, 4 hours, 12 hours and 24 hours. Each tumor tissue was collected in a tube and immediately frozen with liquid nitrogen; each blood sample was collected in a Li-Heparin LH/1.3 tube ([sequence]), and plasma was recovered by centrifugation (1500 rpm×2 minutes). The collected plasma from each blood sample was transferred into a new tube and immediately frozen in liquid nitrogen. Liquid nitrogen-frozen specimens were then transferred to an −80° C. freezer for analysis.
Drug in plasma is extracted with acidified methanol. An 800 μL aliquot of ice-cold acidified methanol is added to 200 μL plasma and vortexed for 15 sec. […] An 800 μL aliquot of ice-cold acidified methanol is added to 200 μL homogenized tissue and then vortexed for 1 min. The samples are then centrifuged at 13,000 rpm for 5 min. and the supernatant is transferred to a clean 13×100 mm glass tube. Samples are dried under vacuum and stored at −20° C. until analysis. […] Analysis is carried out using an Acquity UPLC system with Fluorescence detection interfaced with Empower software. […] The fluorescence detector is set at the following Excitation (Ex) and Emissions (Em) wavelengths: Ex 370 nm Em 510 nm. […] QC samples are analyzed with each curve.

[7] = tested on: A2780CP70-GFPcODC cells; experiment: GFPcODC drug-resistant cell tracking, A2780CP; type: cell-based, human; conditions: 10 nM and 100 nM
Source text: Generation of A2780-GFPcODC, A2780CP-GFPcODC and PANC1GFPcODC cells and fluorescence microscopy to detect stem-like and drug resistant green cells. The retroviral expression vector pQCXIN-ZsGreen-cODC (ornithine decarboxylase), containing a green fluorescence marker, was kindly provided by Dr. Frank Pajonk (Vlashi E, et al., In vivo imaging, tracking, and targeting of cancer stem cells. J Natl Cancer Inst. 2009; 101: 350-9). The retroviral particles collected from packaging cells that transfected with the above vector were infected into A2780, A2780CP and PANC1 cells, respectively. The transfected cell pool was used for experiments. The transfected cells were treated with and without cisplatin or FL118 alone or in combination for defined times. Cell images were acquired digitally using the Olympus IX73 Inverted Score s (Olympus). Percentages of living cells were obtained from the average of the total cells counted from 10 microscopic fields.
To test this, we used a novel approach developed in Dr. Pajonk's lab for the live tracking of drug resistant cells (Vlashi E, et al., In vivo imaging, tracking, and targeting of cancer stem cells. J Natl Cancer Inst. 2009; 101: 350-9). This approach takes advantage of reduced 26S proteasome activity of drug resistant cells. […]

[8] = tested on: PANC1, Mia2, BxPC-3; experiment: MTT viability of pancreatic cancer cells; type: cell-based, human; conditions: 72 h, nM level
Method: MTT assays. […] Each experiment was performed at least in triplicate.
Next, we determined whether FL118-mediated inhibition of antiapoptotic proteins and induction of pro-apoptotic proteins shown in FIG. 1 would be accompanied by induction of apoptosis and cell killing.

[9] = tested on: PDX14244; experiment: Pancreatic cancer PDX14244 in SCID mice; type: in vivo; conditions: 5 mg/kg ip qw×4
Method: as §1, §2

[10] = tested on: HCT116; type: cell-based, human; conditions: Table 13; MTT; HCT116 colorectal cancer
[11] = tested on: PDX10978; experiment: Pancreatic cancer PDX10978 in SCID mice; type: in vivo
Method: as §1, §2

SMILES: CC[C@@]1(O)C(=O)OCc2c1cc1n(c2=O)Cc2cc3cc4c(cc3nc2-1)OCO4 [FL118, 10,11-methylenedioxy-camptothecin]
- expression of ERCC6 and γ-H2AX [1]: strongly decreased the expression of ERCC6 and induced γ-H2AX
- substrate of ABCG2 and Pgp [2]: not a substrate of ABCG2 and Pgp
- IC50 [3]: 0.0347 ± 0.0099 µM
- antitumor efficacy [4]: able to eliminate these PDX tumors after one cycle of treatment
- sphere formation [5]: high efficacy in inhibiting sphere formation
- concentration in tumor versus serum [6]: many folds higher than those in serum
- decrease of GFPcODC-positive drug-resistant cell population [7]: more than 50%
- pancreatic cancer cell viability [8]: effectively inhibited pancreatic cancer cell viability
- antitumor efficacy [9]: able to eliminate these PDX tumors after one cycle of treatment
- IC50 [10]: 0.0665 ± 0.0112 µM
- antitumor efficacy ([11]; 5 mg/kg ip qw×4): only able to delay PDX10978 tumor growth
- antitumor efficacy, single agent ([11]; FL118 0.75 mg/kg or gemcitabine 60 mg/kg ip qw×4): only delayed tumor growth
